Test results published in the Kinase Knowledgebase extract (Sharma et al. 2016).

Columns and labels:
PIK3CA (human) = PIK3CA (human) (UniProt P42336); test: Inhibition of PIK3CA Kinase Activity
PIK3CG (human) = PIK3CG (human) (UniProt P48736); test: Inhibition of PIK3CG Kinase Activity
Chain of PIK3CG (human) (P48736 whole entry, looked up): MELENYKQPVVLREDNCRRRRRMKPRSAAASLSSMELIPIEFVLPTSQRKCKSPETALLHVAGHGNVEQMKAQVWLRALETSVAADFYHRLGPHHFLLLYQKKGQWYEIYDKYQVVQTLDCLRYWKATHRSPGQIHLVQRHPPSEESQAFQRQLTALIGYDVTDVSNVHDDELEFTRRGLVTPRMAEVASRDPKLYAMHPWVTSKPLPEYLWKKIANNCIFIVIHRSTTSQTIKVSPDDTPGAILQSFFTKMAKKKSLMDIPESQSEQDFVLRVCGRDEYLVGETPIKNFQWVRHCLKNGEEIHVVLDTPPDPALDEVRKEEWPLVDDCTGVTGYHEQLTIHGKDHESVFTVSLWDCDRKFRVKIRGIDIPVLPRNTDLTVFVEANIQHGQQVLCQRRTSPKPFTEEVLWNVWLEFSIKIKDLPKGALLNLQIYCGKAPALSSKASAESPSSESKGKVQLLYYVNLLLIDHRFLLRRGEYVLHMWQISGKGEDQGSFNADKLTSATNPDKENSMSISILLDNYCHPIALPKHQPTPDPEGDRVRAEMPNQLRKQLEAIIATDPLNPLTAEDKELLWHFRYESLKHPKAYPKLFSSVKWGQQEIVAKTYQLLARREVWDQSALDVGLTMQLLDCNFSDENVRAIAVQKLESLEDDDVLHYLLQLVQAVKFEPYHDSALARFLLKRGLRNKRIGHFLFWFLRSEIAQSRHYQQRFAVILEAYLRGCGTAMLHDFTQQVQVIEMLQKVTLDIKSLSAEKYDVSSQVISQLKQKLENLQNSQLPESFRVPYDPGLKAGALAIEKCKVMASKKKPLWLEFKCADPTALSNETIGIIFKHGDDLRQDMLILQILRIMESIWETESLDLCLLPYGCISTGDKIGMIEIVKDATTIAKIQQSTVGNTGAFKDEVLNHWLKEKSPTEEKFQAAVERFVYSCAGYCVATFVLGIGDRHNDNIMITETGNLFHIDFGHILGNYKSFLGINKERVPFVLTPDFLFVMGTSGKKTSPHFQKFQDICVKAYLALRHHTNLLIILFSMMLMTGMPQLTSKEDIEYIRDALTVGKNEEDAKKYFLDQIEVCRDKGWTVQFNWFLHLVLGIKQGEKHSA

Chain of PIK3CA (human) (P42336 whole entry, looked up): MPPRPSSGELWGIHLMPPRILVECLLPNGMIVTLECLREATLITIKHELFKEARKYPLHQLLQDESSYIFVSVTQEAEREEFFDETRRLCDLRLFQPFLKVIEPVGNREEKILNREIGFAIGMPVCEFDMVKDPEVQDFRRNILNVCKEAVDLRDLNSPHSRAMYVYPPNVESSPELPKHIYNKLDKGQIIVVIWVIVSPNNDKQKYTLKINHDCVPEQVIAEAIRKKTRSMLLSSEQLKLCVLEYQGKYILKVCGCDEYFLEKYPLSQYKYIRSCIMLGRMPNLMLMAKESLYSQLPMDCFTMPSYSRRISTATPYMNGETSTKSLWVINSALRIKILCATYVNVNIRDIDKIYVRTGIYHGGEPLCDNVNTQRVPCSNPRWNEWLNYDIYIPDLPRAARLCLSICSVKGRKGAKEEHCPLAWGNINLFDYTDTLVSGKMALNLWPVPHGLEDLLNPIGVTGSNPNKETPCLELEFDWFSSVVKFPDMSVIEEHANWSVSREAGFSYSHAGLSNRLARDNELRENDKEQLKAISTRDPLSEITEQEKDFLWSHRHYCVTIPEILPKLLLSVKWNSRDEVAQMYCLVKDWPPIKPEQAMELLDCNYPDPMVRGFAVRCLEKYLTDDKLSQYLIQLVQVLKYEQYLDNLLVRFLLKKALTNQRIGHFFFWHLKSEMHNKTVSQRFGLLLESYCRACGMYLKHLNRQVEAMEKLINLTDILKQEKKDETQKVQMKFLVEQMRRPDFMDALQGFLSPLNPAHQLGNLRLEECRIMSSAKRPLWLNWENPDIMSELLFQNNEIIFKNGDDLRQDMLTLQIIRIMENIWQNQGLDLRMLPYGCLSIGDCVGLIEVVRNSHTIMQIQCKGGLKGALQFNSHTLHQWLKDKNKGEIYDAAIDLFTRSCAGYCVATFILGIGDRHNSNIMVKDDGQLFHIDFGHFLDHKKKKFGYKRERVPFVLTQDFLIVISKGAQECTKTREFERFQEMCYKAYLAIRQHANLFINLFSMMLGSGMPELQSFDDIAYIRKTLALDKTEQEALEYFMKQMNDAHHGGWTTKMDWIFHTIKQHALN

Row | SMILES | IC50 (PIK3CA (human)) | IC50 (PIK3CG (human))
1 | CCn1nnc2c(N3CCOCC3)nc(-c3ccc(NC(=O)Nc4ccc(NCc5ccncc5)cc4)cc3)nc21 | 552 nM | 
2 | Oc1cccc(-c2nc(N3CCOCC3)c3nnn(CCCCN4CCN(Cc5ccccc5)CC4)c3n2)c1 | 116 nM | 216 nM
3 | CCn1nnc2c(N3CCOCC3)nc(-c3ccc(NC(=O)Nc4ccc(NC(=O)N5CCC(N(C)C)CC5)cc4)cc3)nc21 | 614 nM | 1.45 nM
4 | CCn1nnc2c(N3CCOCC3)nc(-c3ccc(NC(=O)Nc4ccc(NC(=O)N5CCC(N6CCCC6)CC5)cc4)cc3)nc21 | 640 nM | 0.75 nM
5 | CCn1nnc2c(N3CCOC[C@@H]3C)nc(-c3ccc(NC(=O)Nc4ccc(C(=O)N5CCN(C)CC5)cc4)cc3)nc21 | 585 nM | 2.15 nM
6 | CCn1nnc2c(N3CCOCC3)nc(-c3ccc(NC(=O)Nc4ccc(NC(=O)NCCN(C)C)cc4)cc3)nc21 | 574 nM | 1.65 nM
7 | CCn1nnc2c(N3CCOCC3)nc(-c3ccc(NC(=O)Nc4ccc(C(=O)N5CCN(C)CC5)nc4)cc3)nc21 | 572 nM | 
8 | CCn1nnc2c(N3CCOCC3)nc(-c3ccc(NC(=O)Nc4ccc(NCc5cccnc5)cc4)cc3)nc21 | 552 nM | 3.3 nM
9 | CC(C)n1nnc2c(N3CCOCC3)nc(-c3ccc(NC(=O)Nc4ccc([N+](=O)[O-])cc4)cc3)nc21 | 504 nM | 
10 | CC(C)n1nnc2c(N3CCOCC3)nc(-c3ccc(NC(=O)Nc4ccc(N)cc4)cc3)nc21 | 473 nM | 
11 | CCn1nnc2c(N3CCOCC3)nc(-c3ccc(NC(=O)Nc4ccc(C(=O)NN(C)C)cc4)cc3)nc21 | 531 nM | 8 nM
12 | CCn1nnc2c(N3CCOCC3)nc(-c3ccc(NC(=O)Nc4ccc(N)cc4)cc3)nc21 | 460 nM | 7.33 nM
13 | CCn1nnc2c(N3CCOCC3)nc(-c3ccc(NC(=O)Nc4ccc(C(=O)O)nc4)cc3)nc21 | 490 nM | 3.3 nM
14 | CCn1nnc2c(N3CCOCC3)nc(-c3ccc(NC(=O)Nc4ccc(NC(=O)c5cccc(N(C)C)c5)cc4)cc3)nc21 | 607 nM | 1.83 nM
15 | CC(C)n1nnc2c(N3CCOCC3)nc(-c3ccc(NC(=O)Nc4ccc(C(=O)N5CCN(C)CC5)cc4)cc3)nc21 | 585 nM | 
16 | CCn1nnc2c(N3CCOC[C@@H]3C)nc(-c3ccc(NC(=O)Nc4ccc(C(=O)NCCN(C)C)cc4)cc3)nc21 | 573 nM | 1.85 nM
17 | CCn1nnc2c(N3CCOCC3)nc(-c3ccc(NC(=O)Nc4ccc(NC(=O)NCc5ccccn5)cc4)cc3)nc21 | 594 nM | 3.3 nM
18 | CCn1nnc2c(N3CCOCC3)nc(-c3ccc(NC(=O)Nc4ccc(NC(=O)N5CCOCC5)cc4)cc3)nc21 | 573 nM | 
19 | CCn1nnc2c(N3CCOCC3)nc(-c3ccc(NC(=O)Nc4ccc(NC(=O)CN(C)C)cc4)cc3)nc21 | 574 nM | 1.33 nM
20 | CCn1nnc2c(N3CCOCC3)nc(-c3ccc(NC(=O)Nc4ccc(CN5CCN(C)CC5)cc4)cc3)nc21 | 557 nM | 1.35 nM
21 | CCn1nnc2c(N3CCOCC3)nc(-c3ccc(NC(=O)Nc4ccc(N5CCN(C)CC5)cc4)cc3)nc21 | 543 nM | 
22 | CCn1nnc2c(N3CCOCC3)nc(-c3ccc(NC(=O)Nc4ccc(C(=O)OC)nc4)cc3)nc21 | 504 nM | 
23 | CCn1nnc2c(N3CCOCC3)nc(-c3ccc(NC(=O)Nc4ccc(NC(=O)N5CCN(C)CC5)cc4)cc3)nc21 | 586 nM | 1.85 nM
24 | CCn1nnc2c(N3CCOC[C@@H]3C)nc(-c3ccc(NC(=O)Nc4ccc(C(=O)N5CCC(N(C)C)CC5)cc4)cc3)nc21 | 613 nM | 
25 | CCn1nnc2c(N3CCOCC3)nc(-c3ccc(NC(=O)Nc4ccc(NC(=O)NCCN5CCN(C)CC5)cc4)cc3)nc21 | 629 nM | 1.8 nM

Row | SMILES | IC50 (PIK3CA (human)) | IC50 (PIK3CG (human))
26 | CCn1nnc2c(N3CCOCC3)nc(-c3ccc(NC(=O)Nc4ccc(NC(=O)NCCN5CCCC5)cc4)cc3)nc21 | 601 nM | 1.7 nM
27 | CC(C)n1nnc2c(N3CCOCC3)nc(-c3ccc(NC(=O)Nc4ccc(NS(C)(=O)=O)cc4)cc3)nc21 | 552 nM | 
28 | CC(C)n1nnc2c(N3CCOCC3)nc(-c3ccc(NC(=O)Nc4ccc(N5CCN(C)CC5)cc4)cc3)nc21 | 558 nM | 
29 | CCn1nnc2c(N3CCOCC3)nc(-c3ccc(NC(=O)Nc4ccc(NC(=O)NCCOC)cc4)cc3)nc21 | 561 nM | 
30 | CCn1nnc2c(N3CCOCC3)nc(-c3ccc(NC(=O)Nc4ccc(NC(=O)N5CCNCC5)cc4)cc3)nc21 | 573 nM | 1.7 nM
31 | CCn1nnc2c(N3CCOCC3)nc(-c3ccc(NC(=O)Nc4ccc(NC(=O)NC5CCN(C)CC5)cc4)cc3)nc21 | 601 nM | 1.7 nM
32 | CCN1CCN(C(=O)Nc2ccc(NC(=O)Nc3ccc(-c4nc(N5CCOCC5)c5nnn(CC)c5n4)cc3)cc2)CC1 | 600 nM | 0.9 nM
33 | CCn1nnc2c(N3CCOCC3)nc(-c3ccc(NC(=O)Nc4ccc(NCc5ccc(OC)nc5)cc4)cc3)nc21 | 581 nM | 
34 | Oc1cccc(-c2nc(N3CCOCC3)c3nnn(C4CCN(Cc5ccc[nH]5)CC4)c3n2)c1 | 62 nM | 426 nM
35 | CCn1nnc2c(N3CCOCC3)nc(-c3ccc(NC(=O)Nc4ccc(NC(=O)c5ccncc5)cc4)cc3)nc21 | 565 nM | 1.85 nM
36 | CCn1nnc2c(N3CCOCC3)nc(-c3ccc(NC(=O)Nc4ccc(C(=O)Nc5cccnc5)cc4)cc3)nc21 | 565 nM | 1.85 nM
37 | CCn1nnc2c(N3CCOCC3)nc(-c3ccc(NC(=O)Nc4ccc(C(=O)N(C)CCN(C)C)nc4)cc3)nc21 | 560 nM | 1.85 nM
38 | CCn1nnc2c(N3CCOCC3)nc(-c3ccc(NC(=O)Nc4ccc(NC(=O)N(C)CCN(C)C)cc4)cc3)nc21 | 588 nM | 1.65 nM
39 | CCn1nnc2c(N3CCOCC3)nc(-c3ccc(NC(=O)Nc4ccc([N+](=O)[O-])cc4)cc3)nc21 | 490 nM | 
40 | CC(C)(C)OC(=O)N1CC(n2nnc3c(N4CCOCC4)nc(-c4ccc(NC(=O)Nc5ccccc5)cc4)nc32)C1 | 58 nM | 790 nM
41 | CN(C)CCNC(=O)c1ccc(NC(=O)Nc2ccc(-c3nc(N4CCOCC4)c4nnn(-c5cccc(C(=O)O)c5)c4n3)cc2)cc1 | 651 nM | 0.95 nM
42 | CN(C)CCNC(=O)c1ccc(NC(=O)Nc2ccc(-c3nc(N4CCOCC4)c4nnn(-c5cccc(C(N)=O)c5)c4n3)cc2)cc1 | 650 nM | 0.8 nM
43 | CCn1nnc2c(N3CCOC[C@@H]3C)nc(-c3ccc(NC(=O)Nc4ccc(C(=O)NCCN5CCCCC5)cc4)cc3)nc21 | 613 nM | 
44 | CCn1nnc2c(N3CCOCC3)nc(-c3ccc(NC(=O)Nc4ccc(NCc5ccc(F)nc5)cc4)cc3)nc21 | 569 nM | 
45 | CC(C)n1nnc2c(N3CCOCC3)nc(-c3ccc(NC(=O)Nc4ccc(C(=O)NCCN(C)C)cc4)cc3)nc21 | 572 nM | 2 nM
46 | CCn1nnc2c(N3CCOCC3)nc(-c3ccc(NC(=O)Nc4ccc(NC(=O)N5CCCN(C)CC5)cc4)cc3)nc21 | 600 nM | 1.65 nM
47 | CCn1nnc2c(N3CCOC[C@@H]3C)nc(-c3ccc(NC(=O)Nc4ccc(C(=O)NCCN5CCCC5)cc4)cc3)nc21 | 599 nM | 
48 | O=C(Nc1ccncc1)Nc1ccc(-c2nc(N3CCOCC3)c3nnn(CCO)c3n2)cc1 | 5.3 nM | 20 nM
49 | CCn1nnc2c(N3CCOC[C@@H]3C)nc(-c3ccc(NC(=O)Nc4ccc(C(=O)N(C)CCN(C)C)cc4)cc3)nc21 | 587 nM | 2.2 nM
